One data set concerns DENV-2. Kind of data set: microbe, parasite or virus in culture. The conditions noted are these: Dengue virus, DENV2, Vero 76; DENV-2, Vero76 cells. It is filed as cell-based.
A further data set deals with HFF. The conditions noted are these: HFF cells.
Data set [1] is described as follows: Parallel cytotoxicity assay in MEF cells. Type of data set: cell-based. The conditions noted are these: mouse, parallel to MCMV assay. On the procedure: (§1) Every antiviral assay included a parallel cytotoxicity assay with the same cells used for each virus, the same cell number, the same drug concentrations, and the same incubation times to provide the same drug exposure. To ensure that the cytotoxicity of all compounds could be compared directly, a standard neutral red uptake cytotoxicity assay for all compounds in confluent HFF cells with a 7 d incubation period was performed.

A short description of data set [2]: Parallel cytotoxicity assay in 293TT cells. Type of data set: cell-based. Conditions: human, parallel to JCV assay. On the procedure:
as §1

Data set [3] in a line: Cytotoxicity in lymphocyte assays, BCBL-1 cells. Type of data set: cell-based. The conditions noted are these: human, parallel to HHV-8 assay. On the procedure: as §1
Cytotoxicity in Lymphocyte Assays:
Cell viability in all assays with lymphocytes was assessed with a luminescent Cell Viability Assay. Briefly, assay plates were incubated at ambient temperature for 30 min then luminescent reagent was added to each well and the plates were mixed to lyse the cells. Plates were then incubated for at ambient temperature and the luminescence was quantified on a luminometer. Standard methods were used to calculate drug concentrations that inhibited the proliferation of cells by 50% (CC50).
Cell viability in all assays with lymphocytes was assessed with the CellTiter-Glo Luminescent Cell Viability Assay (Promega). […] Plates were then incubated for an additional 10 min at ambient temperature and the luminescence was quantified on a luminometer. […]

A further data set concerns MEV. The data set can be described thus: microbe, parasite or virus in culture. Conditions: Measles morbillivirus, Vero 76, Vero76 cells. It is filed as cell-based.
Data set [4] in a line: CytoTox-1 cytotoxicity assay in Huh 7 cells. It is filed as cell-based. Conditions: human, parallel to HCV assay. On the procedure:
Luciferase reporter (Replicon)/CytoTox-1 (Toxicity). Compounds were screened for anti-HCV activity using a luciferase (Luc) reporter gene endpoint in the HCV primary assay. The Luc reporter was used as an indirect measure of HCV replication as its activity is directly proportional to HCV RNA levels. Assessment of cytotoxicity is conducted in parallel. Drug stocks were prepared in DMSO unless otherwise specified and were diluted with tissue culture medium to the desired high-test concentration. For each assay, the compounds were then further diluted in tissue culture medium as required. After incubation, the cells were processed to derive, where applicable, EC50 and EC90 (compound concentration reducing replicon replication by 50% and 90% respectively). […] Anti-HCV activity was assessed with the replicon (genotype 1b or 2a) or HCVcc virus-derived Luc activity as readout; whereas the cytotoxic concentrations of drug reducing cell numbers was assessed by the CytoTox-1 cell proliferation assay according to manufacturer's protocol. […]
Luciferase reporter (Replicon)/CytoTox-1 (Toxicity). […] Anti-HCV activity was assessed with the replicon (genotype 1b or 2a) or HCVcc virus-derived Luc activity as readout; whereas the cytotoxic concentrations of drug reducing cell numbers was assessed by the CytoTox-1 cell proliferation assay (Promega, Madison, Wis.) according to manufacturer's protocol. […]

In data set [5] the test system is murine norovirus (MNV) CR3. Kind of data set: Study No. 1: efficacy against Murine Norovirus infection in mice. Type of data set: in vivo, BALB/c mice. The conditions noted are these: for murine norovirus titer in tissue and feces: 30, 100, 300 mg/kg/day BID oral gavage from day −2, 10^6 PFU, day 3 post-infection. On the procedure: Study No. 1 evaluated the efficacy of twice-daily dosing of Compound 1 over a range of 30 mg/kg to 300 mg/kg, initiated prior to infection of mice with 10^6 plaque-forming units (PFU) of murine norovirus (MNV) CR3. A control group of mice treated with vehicle was also included. All doses were started 2 days (39 hours) prior to infection.
Compound was delivered twice daily at indicated doses via oral gavage. A control group of mice treated with vehicle only was also included. Mice were infected with murine norovirus by pipetting virus into mouth 2 days after the first dose. Mice were housed on metal grates and combined fecal output was collected every 24 hours. Tissues (distal ileum and cecum) and individual fecal pellets were harvested on day 3 post inoculation. All samples were titered by plaque assay.
For both studies, compound was delivered via oral gavage at the indicated doses and times prior to infection. Mice were infected with murine norovirus CR3 by pipetting virus into mouth 3 hours after the first day 0 dose of Compound 1 was given. Following infection, compound was administered twice daily through day 3 post-infection.
The mice used were ˜20 gram, 8-12 week old female BALB/c mice in groups of 5. Mice were housed on metal grates and combined fecal output was collected every 24 hours, starting at day −1. Tissues (˜1 cm of distal ileum and cecum) and individual fecal pellets were harvested on day 3 post-infection and weighed. All samples were titered by plaque assay (qRT-PCR as back-up when titers are too low); titers were normalized to gram of tissue or feces. On day 3, duplicate samples of tissue (˜1 cm of distal ileum and cecum) were collected, rinsed in PBS, and snap frozen; serum and a duplicate feces sample were also collected on day 3 and snap frozen; this set of sample was submitted for MS analysis to assess drug bioavailability.

The next data set concerns SARS. Kind of data set: organism not typed. It is filed as cell-based, SARS CoV. The conditions noted are these: Vero 76.
The test system of another data set is AdV. The data set can be described thus: microbe, parasite or virus in culture. The conditions noted are these: unidentified adenovirus, A549 cells. It is filed as cell-based.

Entries after “also recorded” stand apart in the source; their conditions may differ. Read-outs that look alike come from different tables or passages of the source. Where only a bound is given, the exact number is not on record here.

In the case of `Cc1nc(N)c2c(C(N)=O)cn([C@@H]3O[C@H](CO)[C@@H](O)[C@H]3O)c2n1` [Compound 1, 4-amino-7-((2R,3R,4S,5R)-3,4-dihydroxy-5-(hydroxymethyl)tetrahydrofuran-2-yl)-2-methyl-7H-pyrrolo[2,3-d]pyrimidine-5-carboxamide], the EC50 (in general, the concentration at which the effect is half-maximal) in the data set on DENV-2 was greater than 100 µM; in the data set on MEV, greater than 100 µM; in the data set with SARS, 37 µM; in the data set on AdV, greater than 100 µM. Moreover, the CC50 (as a rule, the concentration that lowers cell viability or growth by half) in the data set with HFF (parallel to BKV assay) is greater than 60 µM; with HFF (parallel to HSV-2 assay), greater than 60 µM; in the data set on HFF (parallel to VACV assay), greater than 60 µM; in the data set with HFF (parallel to VZV assay), greater than 60 µM; in data set [1], greater than 100 µM; in data set [2] it was greater than 60 µM. Also, the results for the 50% cytotoxic concentration (CC50) in data set [3] and in data set [4] were 46.8 µM and greater than 20 µM, respectively. Besides, the “murine norovirus titer in tissue and feces” value is “effective in reducing the titer of murine norovirus in both tissue and feces” in data set [5]; “reduce the viral load in mice infected with murine norovirus in a dose-dependent manner; also recorded: showed a reduction in PFU/gram with increasing dose” in data set [5] (listed as compound 1). Further, the “virus titer in tissue and feces compared with vehicle” value in data set [5] (twice-daily 300 mg/kg) was “significant reduction in virus titer”.
